US20110086759A1, “CHEMICAL COMPOUNDS” (SYNGENTA CROP PROTECTION, INC., priority 2007, published 2011)

Assays:
Type in all cases: in vivo
[1] = system: Alopecurus myosuroides (ALOMY); assay: Pre-emergence biological efficacy, glasshouse pot test; conditions: 312 h, pre-emergence, rate 1,000 g/ha, evaluated after 13 days (100=total damage to plant; 0=no damage), read-out: Percentage damage caused to weed species, ALOMY
In short: (§1)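 Sow seeds in pots of standard soil; after one day in the glasshouse, spray test compound (1000 or 250 g/ha) in aqueous acetone/water with 0.5% Tween 20. Grow 13 days at 24/16 °C day/night, then score damage from 0 to 100.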

[2] = system: Amaranthus retoflexus (AMARE); assay: as above; conditions: Amaranthus retroflexus, 312 h; pre-emergence, rate 1,000 g/ha, evaluated after 13 days (100=total damage to plant; 0=no damage); read-out: Percentage damage caused to weed species, AMARE
In short: as §1

[3] = system: Echinochloa crus-galli (ECHCG); assay: as above; conditions: 312 h, pre-emergence, rate 1,000 g/ha, evaluated after 13 days (100=total damage to plant; 0=no damage), read-out: Percentage damage caused to weed species, ECHCG
In short: as §1

[4] = system: Ipomea hederaceae (IPOHE); assay: as above; conditions: Ipomoea hederacea, 312 h; pre-emergence, rate 1,000 g/ha, evaluated after 13 days (100=total damage to plant; 0=no damage); read-out: Percentage damage caused to weed species, IPOHE
In short: as §1

Setaria faberi (SETFA) [5] = assay: as above; conditions: 312 h, pre-emergence, rate 1,000 g/ha, evaluated after 13 days (100=total damage to plant; 0=no damage), read-out: Percentage damage caused to weed species, SETFA
In short: as §1

Solanum nigrum (SOLNI) [6] = assay: as above; conditions: 312 h, pre-emergence, rate 1,000 g/ha, evaluated after 13 days (100=total damage to plant; 0=no damage), read-out: Percentage damage caused to weed species, SOLNI
In short: as §1

[7] = system: Alopecurus myosuroides (ALOMY); assay: Post-emergence biological efficacy, glasshouse pot test; conditions: 312 h, Rate 1,000 g/ha, post-emergence spray, evaluated after 13 days (100=total damage to plant; 0=no damage to plant), read-out: Percentage damage caused to weed species, post-emergence, ALOMY
In short: (§2)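 Scored 13 days after spraying on a 0 (no damage) to 100 (total damage) scale. Treatment was a post-emergence spray at 1000 or 250 g/ha, from acetone/water 50:50 plus 0.5% Tween 20, onto 8-day-old plants in soil pots. Growth at 24/16° C, 14 h photoperiod, 65% humidity, watered twice daily.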

[8] = system: Amaranthus retoflexus (AMARE); assay: as above; conditions: Amaranthus retroflexus, 312 h; Rate 1,000 g/ha; post-emergence spray; evaluated after 13 days (100=total damage to plant; 0=no damage to plant); read-out: Percentage damage caused to weed species, post-emergence, AMARE
In short: as §2

[9] = system: Echinochloa crus-galli (ECHCG); assay: as above; conditions: 312 h, Rate 1,000 g/ha, post-emergence spray, evaluated after 13 days (100=total damage to plant; 0=no damage to plant), read-out: Percentage damage caused to weed species, post-emergence, ECHCG
In short: as §2

[10] = system: Ipomea hederaceae (IPOHE); assay: as above; conditions: Ipomoea hederacea, 312 h; Rate 1,000 g/ha; post-emergence spray; evaluated after 13 days (100=total damage to plant; 0=no damage to plant); read-out: Percentage damage caused to weed species, post-emergence, IPOHE
In short: as §2

Setaria faberi (SETFA) [11] = assay: as above; conditions: 312 h, Rate 1,000 g/ha, post-emergence spray, evaluated after 13 days (100=total damage to plant; 0=no damage to plant), read-out: Percentage damage caused to weed species, post-emergence, SETFA
In short: as §2

Solanum nigrum (SOLNI) [12] = assay: as above; conditions: 312 h, Rate 1,000 g/ha, post-emergence spray, evaluated after 13 days (100=total damage to plant; 0=no damage to plant), read-out: Percentage damage caused to weed species, post-emergence, SOLNI
In short: as §2

Row | SMILES | pest or weed control at 1000 g/ha [1] [%] | pest or weed control at 1000 g/ha [2] [%] | pest or weed control at 1000 g/ha [3] [%] | pest or weed control at 1000 g/ha [4] [%] | pest or weed control at 1000 g/ha (Setaria faberi (SETFA) [5]) [%] | pest or weed control at 1000 g/ha (Solanum nigrum (SOLNI) [6]) [%] | pest or weed control at 1000 g/ha [7] [%] | pest or weed control at 1000 g/ha [8] [%] | pest or weed control at 1000 g/ha [9] [%] | pest or weed control at 1000 g/ha [10] [%] | pest or weed control at 1000 g/ha (Setaria faberi (SETFA) [11]) [%] | pest or weed control at 1000 g/ha (Solanum nigrum (SOLNI) [12]) [%]
1 | COC(=O)c1nc(C2CC2)nc(N(C)Cc2cccnc2)c1Cl [Compound 5-156, 5-Chloro-2-cyclopropyl-6-methoxycarbonyl-4-(N-methyl-N-pyridin-3-ylmethyl-amino)pyrimidine] | 10 | 90 | 0 | 60 | 0 | 20 | 30 | 100 | 20 | 80 | 60 | 80
2 | COC(=O)c1nc(C2CC2)nc(N(C)Cc2ccncc2)c1Cl [Compound 5-160, 5-Chloro-2-cyclopropyl-6-methoxycarbonyl-4-(N-methyl-N-pyridin-4-ylmethyl-amino)pyrimidine] | 0 | 80 | 20 | 70 | 0 | 40 | 20 | 100 | 0 | 100 | 60 | 80
3 | COC(=O)c1nc(C2CC2)nc(N(C)CCc2ccccc2)c1Cl [Compound 5-221, 5-Chloro-2-cyclopropyl-6-methoxycarbonyl-4-[(N-methyl)-N-(2-phenylethyl)-amino]pyrimidine] | 0 | 30 | 0 | 40 | 0 | 30 | 10 | 100 | 30 | 100 | 40 | 80
4 | COC(=O)c1nc(C2CC2)nc(N(C)CCc2ccccn2)c1Cl [Compound 5-228, 5-Chloro-2-cyclopropyl-6-methoxycarbonyl-4-[N-methyl-N-(2-pyrid-2-ylethyl)-amino]pyrimidine] | 0 | 80 | 0 | 0 | 0 | 70 | 20 | 100 | 30 | 90 | 40 | 70
5 | COC(=O)c1nc(C2CC2)nc(N(C)CC(O)c2ccccc2)c1Cl (stereo not drawn) [Compound 5-257, 5-Chloro-2-cyclopropyl-4-[N-(2-hydroxy-2-phenyl-ethyl)-N-methyl-amino]-6-methoxy-carbonylpyrimidine] | 10 | 100 | 30 | 50 | 10 | 100 | 20 | 100 | 30 | 80 | 50 | 80
6 | COC(=O)c1nc(C2CC2)nc(N(C)C(C)C(O)c2ccccc2)c1Cl (stereo not drawn) [Compound 5-270, 5-Chloro-2-cyclopropyl-4-[N-(2-hydroxy-1-methyl-2-phenyl-ethyl)-N-methyl-amino]-6-methoxycarbonyl-pyrimidine] | 10 | 90 | 0 | 20 | 0 | 50 | 10 | 90 | 0 | 90 | 30 | 80
7 | CCN(c1nc(C2CC2)nc(C(=O)OC)c1Cl)C1CCCCC1 [Compound 6-35, 5-Chloro-4-(N-cyclohexyl-N-ethyl-amino)-2-cyclo-propyl-6-methoxy-carbonylpyrimidine] | 10 | 100 | 0 | 30 | 0 | 60 | 0 | 70 | 0 | 80 | 40 | 70
8 | CCN(Cc1ccccc1)c1nc(C2CC2)nc(C(=O)OC)c1Cl [Compound 6-60, 5-Chloro-2-cyclopropyl-4-([N-ethyl-N-phenylmethyl]-amino)-6-methoxycarbonyl-pyrimidine] | 20 | 100 | 20 | 20 | 30 | 100 | 30 | 100 | 70 | 100 | 90 | 90
9 | CCN(Cc1ccccc1F)c1nc(C2CC2)nc(C(=O)OC)c1Cl [Compound 6-64, 5-Chloro-2-cyclopropyl-4-[N-ethyl-N-(2-fluoro-phenyl)methyl-amino]-6-methoxycarbonyl-pyrimidine] | 10 | 60 | 20 | 50 | 30 | 20 | 30 | 100 | 70 | 100 | 90 | 100
10 | CCN(Cc1cccc(F)c1)c1nc(C2CC2)nc(C(=O)OC)c1Cl [Compound 6-65, 5-Chloro-2-cyclopropyl-4-[N-ethyl-N-(3-fluorophenylmethyl)-amino]-6-methoxycarbonyl-pyrimidine] | 20 | 70 | 20 | 70 | 30 | 40 | 10 | 100 | 70 | 100 | 90 | 90
11 | CCN(Cc1ccc(F)cc1)c1nc(C2CC2)nc(C(=O)OC)c1Cl [Compound 6-66, 5-Chloro-2-cyclopropyl-4-[N-ethyl-N-(4-fluorophenylmethyl)-amino]-6-methoxycarbonyl-pyrimidine] | 20 | 50 | 0 | 80 | 10 | 20 | 40 | 100 | 60 | 100 | 90 | 90
